Data: patent US20080009418A1, “Selective Inhibitors” (Alchemia LTD., priority 2004, published 2008)

What was measured:
Human δ-opioid (DOP) = target: T1, Human δ-opioid (DOP) (Homo sapiens, UniProt P41143); assay: Radioligand binding, human δ-opioid (DOP) membranes, FlashPlate, [3H]-Bremazocine; conditions: compound at 10 μM; [3H]-Bremazocine, FlashPlate
T1 construct: purchased Perkin Elmer Biosignal
How it was run: (§1)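 Cloned human receptor membranes were coated onto FlashPlate wells and incubated with radioligand and compound (added from a 0.5 mM DMSO daughter plate) for 1 hour at room temperature in the dark. Scintillation counting gave percent inhibition, with DMSO defining total and reference ligand defining non-specific binding.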

Human κ-Opioid (KOP) = target: T2, Human κ-Opioid (KOP) (Homo sapiens, UniProt P41145); assay: Radioligand binding, human κ-opioid (KOP) membranes, filtration, [3H]-Diprenorphine; conditions: compound at 10 μM; [3H]-Diprenorphine, filtration
T2 construct: purchased Perkin Elmer Biosignal
T2 sequence (P41145 whole entry): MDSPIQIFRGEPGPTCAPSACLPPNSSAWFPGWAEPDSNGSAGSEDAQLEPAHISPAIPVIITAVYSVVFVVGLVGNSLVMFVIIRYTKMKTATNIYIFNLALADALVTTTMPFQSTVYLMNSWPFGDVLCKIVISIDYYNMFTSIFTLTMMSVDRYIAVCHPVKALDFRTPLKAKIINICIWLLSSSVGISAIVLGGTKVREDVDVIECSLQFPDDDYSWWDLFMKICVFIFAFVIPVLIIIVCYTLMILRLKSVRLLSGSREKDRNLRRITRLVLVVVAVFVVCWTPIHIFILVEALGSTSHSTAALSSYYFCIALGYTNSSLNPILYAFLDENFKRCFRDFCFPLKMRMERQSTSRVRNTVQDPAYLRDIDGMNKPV
How it was run: (§2)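 Filtration binding on cloned human receptor membranes (1 Unit/well), [125I]-Substance P for NK1 and [3H]-Diprenorphine for KOP, 1 h at room temperature. Filters PEI-presoaked, washed with cold 50 mM Tris-HCl pH 7.4, counted by scintillation; percent inhibition calculated, reference ligand defining non-specific binding.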

Human Melanocortin (MC3) = target: T3, Human Melanocortin (MC3) (Homo sapiens, UniProt P41968); assay: Radioligand binding, human melanocortin MC3 membranes, FlashPlate, [125I]-NDP-αMSH; conditions: compound at 10 μM; [125I]-NDP-αMSH, FlashPlate
T3 construct: purchased Perkin Elmer Biosignal
T3 sequence (P41968 whole entry): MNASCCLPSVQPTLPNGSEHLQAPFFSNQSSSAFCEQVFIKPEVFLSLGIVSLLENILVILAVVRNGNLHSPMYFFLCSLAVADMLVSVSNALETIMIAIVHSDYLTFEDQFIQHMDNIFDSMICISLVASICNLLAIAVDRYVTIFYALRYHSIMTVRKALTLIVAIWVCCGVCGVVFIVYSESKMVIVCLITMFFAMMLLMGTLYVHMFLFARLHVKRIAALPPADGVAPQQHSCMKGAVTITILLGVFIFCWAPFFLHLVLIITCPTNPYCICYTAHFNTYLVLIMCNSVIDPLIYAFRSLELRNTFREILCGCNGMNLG
How it was run: as §1

Human Melanocortin (MC4) = target: T4, Human Melanocortin (MC4) (Homo sapiens, UniProt P32245); assay: Radioligand binding, human melanocortin MC4 membranes, FlashPlate, [125I]-NDP-αMSH; conditions: compound at 10 μM; [125I]-NDP-αMSH, FlashPlate
T4 construct: purchased Perkin Elmer Biosignal
T4 sequence (P32245 whole entry): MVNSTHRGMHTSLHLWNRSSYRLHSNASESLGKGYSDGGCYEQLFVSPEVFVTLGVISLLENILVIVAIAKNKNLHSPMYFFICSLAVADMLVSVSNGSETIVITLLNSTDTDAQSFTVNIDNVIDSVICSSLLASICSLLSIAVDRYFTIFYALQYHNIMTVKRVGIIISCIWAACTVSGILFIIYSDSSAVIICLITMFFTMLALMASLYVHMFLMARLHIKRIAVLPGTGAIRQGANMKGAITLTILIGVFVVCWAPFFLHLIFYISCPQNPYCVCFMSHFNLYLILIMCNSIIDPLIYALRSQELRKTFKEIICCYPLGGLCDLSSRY
How it was run: as §1

Human melanocortin (MC5) = target: T5, Human melanocortin (MC5) (Homo sapiens, UniProt P33032); assay: Radioligand binding, human melanocortin MC5 membranes, FlashPlate, [125I]-NDP-αMSH; conditions: compound at 10 μM; [125I]-NDP-αMSH, FlashPlate
T5 construct: purchased Perkin Elmer Biosignal
T5 sequence (P33032 whole entry): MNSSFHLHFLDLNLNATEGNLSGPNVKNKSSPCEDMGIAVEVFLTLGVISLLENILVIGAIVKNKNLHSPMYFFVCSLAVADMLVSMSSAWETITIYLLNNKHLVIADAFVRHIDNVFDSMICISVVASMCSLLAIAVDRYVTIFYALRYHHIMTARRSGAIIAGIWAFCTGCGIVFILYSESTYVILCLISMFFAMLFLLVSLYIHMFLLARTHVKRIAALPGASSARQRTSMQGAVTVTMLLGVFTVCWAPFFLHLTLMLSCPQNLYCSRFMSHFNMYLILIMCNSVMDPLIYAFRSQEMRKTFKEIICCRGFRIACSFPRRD
How it was run: as §1

[1] = target: T6, Human melanin-concentrating hormone (MCH1) (Homo sapiens, UniProt Q99705); assay: Radioligand binding, human melanin-concentrating hormone MCH1 membranes, FlashPlate, [125I]-S36057; conditions: compound at 10 μM; [125I]-S36057, FlashPlate
T6 construct: purchased Perkin Elmer Biosignal
T6 sequence (Q99705 whole entry): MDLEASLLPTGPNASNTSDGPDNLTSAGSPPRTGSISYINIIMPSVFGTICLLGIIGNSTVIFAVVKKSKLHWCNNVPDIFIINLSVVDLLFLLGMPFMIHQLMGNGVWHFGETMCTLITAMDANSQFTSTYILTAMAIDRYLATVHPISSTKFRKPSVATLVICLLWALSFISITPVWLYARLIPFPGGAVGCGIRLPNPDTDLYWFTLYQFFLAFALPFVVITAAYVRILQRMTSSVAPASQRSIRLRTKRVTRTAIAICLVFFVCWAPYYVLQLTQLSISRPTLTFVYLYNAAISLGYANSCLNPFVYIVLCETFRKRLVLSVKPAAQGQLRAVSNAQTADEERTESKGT
How it was run: as §1

Human μ-opioid (MOP) = target: T7, Human μ-opioid (MOP) (Homo sapiens, UniProt P35372); assay: Radioligand binding, human μ-opioid (MOP) membranes, FlashPlate, [3H]-Naloxone; conditions: compound at 10 μM; [3H]-Naloxone, FlashPlate
T7 construct: purchased Perkin Elmer Biosignal
T7 sequence (P35372 whole entry): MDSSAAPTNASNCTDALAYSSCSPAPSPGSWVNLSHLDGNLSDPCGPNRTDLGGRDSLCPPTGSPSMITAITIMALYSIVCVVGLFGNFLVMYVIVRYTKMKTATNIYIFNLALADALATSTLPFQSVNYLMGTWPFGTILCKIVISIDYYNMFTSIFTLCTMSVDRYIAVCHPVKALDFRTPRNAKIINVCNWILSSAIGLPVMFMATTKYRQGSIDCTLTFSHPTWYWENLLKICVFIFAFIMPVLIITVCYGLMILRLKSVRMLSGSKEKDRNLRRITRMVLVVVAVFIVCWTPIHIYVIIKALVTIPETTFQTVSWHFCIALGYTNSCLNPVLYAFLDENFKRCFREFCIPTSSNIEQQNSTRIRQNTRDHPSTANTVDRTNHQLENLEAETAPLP
How it was run: as §1

Human neurokinin (NK1) = target: T8, Human neurokinin (NK1) (Homo sapiens, UniProt P25103); assay: Radioligand binding, human neurokinin NK1 membranes, filtration, [125I]-Substance P; conditions: compound at 10 μM; [125I]-Substance P, filtration
T8 construct: purchased Perkin Elmer Biosignal
T8 sequence (P25103 whole entry): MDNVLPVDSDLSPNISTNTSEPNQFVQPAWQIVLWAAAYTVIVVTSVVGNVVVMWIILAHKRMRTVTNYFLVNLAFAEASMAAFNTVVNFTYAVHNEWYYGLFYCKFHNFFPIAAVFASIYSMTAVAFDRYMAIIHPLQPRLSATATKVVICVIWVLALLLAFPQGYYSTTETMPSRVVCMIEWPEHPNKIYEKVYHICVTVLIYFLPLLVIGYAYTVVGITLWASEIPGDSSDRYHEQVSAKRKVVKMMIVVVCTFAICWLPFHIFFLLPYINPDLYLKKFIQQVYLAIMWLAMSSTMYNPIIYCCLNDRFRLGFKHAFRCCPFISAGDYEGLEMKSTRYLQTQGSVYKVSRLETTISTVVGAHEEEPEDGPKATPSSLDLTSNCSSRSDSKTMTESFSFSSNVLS
How it was run: as §2

[2] = target: T9, Human neuropeptide Y (NPY-Y1) (Homo sapiens, UniProt P25929); assay: Radioligand binding, human neuropeptide Y NPY-Y1 membranes, FlashPlate, [125I]-PYY; conditions: compound at 10 μM; [125I]-PYY, FlashPlate
T9 construct: purchased Perkin Elmer Biosignal
T9 sequence (P25929 1-384): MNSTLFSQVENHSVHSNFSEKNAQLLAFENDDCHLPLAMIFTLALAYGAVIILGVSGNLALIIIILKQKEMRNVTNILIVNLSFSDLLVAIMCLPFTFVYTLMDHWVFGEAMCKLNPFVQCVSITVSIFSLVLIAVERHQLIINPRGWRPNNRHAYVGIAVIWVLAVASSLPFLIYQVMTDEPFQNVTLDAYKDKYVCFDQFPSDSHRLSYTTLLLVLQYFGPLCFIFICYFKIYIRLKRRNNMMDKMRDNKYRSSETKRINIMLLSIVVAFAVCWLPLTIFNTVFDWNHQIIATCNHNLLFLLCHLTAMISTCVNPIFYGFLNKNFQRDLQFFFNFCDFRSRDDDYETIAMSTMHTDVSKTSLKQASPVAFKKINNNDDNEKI
How it was run: as §1

Human opioid (ORL1) = target: T10, Human opioid (ORL1) (Homo sapiens, UniProt P41146); assay: Radioligand binding, human opioid ORL1 membranes, FlashPlate, [125I]-Nociceptin; conditions: compound at 10 μM; [125I]-Nociceptin, FlashPlate
T10 construct: purchased Perkin Elmer Biosignal
T10 sequence (P41146 whole entry): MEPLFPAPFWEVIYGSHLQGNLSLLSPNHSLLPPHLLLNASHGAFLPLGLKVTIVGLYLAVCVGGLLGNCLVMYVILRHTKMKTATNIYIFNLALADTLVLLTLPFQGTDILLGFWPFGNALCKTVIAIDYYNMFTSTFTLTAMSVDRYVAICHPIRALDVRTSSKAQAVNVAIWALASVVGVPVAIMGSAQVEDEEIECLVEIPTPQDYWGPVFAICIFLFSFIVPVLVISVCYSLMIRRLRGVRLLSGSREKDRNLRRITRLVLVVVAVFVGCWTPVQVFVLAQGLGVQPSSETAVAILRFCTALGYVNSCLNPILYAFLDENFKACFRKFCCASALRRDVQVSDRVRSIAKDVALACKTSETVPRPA
How it was run: as §1

Mouse urotensin (mUR2) = target: T11, Mouse urotensin (mUR2) (Mus musculus, UniProt Q8VIH9); assay: Radioligand binding, mouse urotensin mUR2 membranes, FlashPlate, [125I]-Urotensin II; conditions: compound at 10 μM; [125I]-Urotensin II, FlashPlate
T11 construct: purchased Perkin Elmer Biosignal
T11 sequence (Q8VIH9 1-385): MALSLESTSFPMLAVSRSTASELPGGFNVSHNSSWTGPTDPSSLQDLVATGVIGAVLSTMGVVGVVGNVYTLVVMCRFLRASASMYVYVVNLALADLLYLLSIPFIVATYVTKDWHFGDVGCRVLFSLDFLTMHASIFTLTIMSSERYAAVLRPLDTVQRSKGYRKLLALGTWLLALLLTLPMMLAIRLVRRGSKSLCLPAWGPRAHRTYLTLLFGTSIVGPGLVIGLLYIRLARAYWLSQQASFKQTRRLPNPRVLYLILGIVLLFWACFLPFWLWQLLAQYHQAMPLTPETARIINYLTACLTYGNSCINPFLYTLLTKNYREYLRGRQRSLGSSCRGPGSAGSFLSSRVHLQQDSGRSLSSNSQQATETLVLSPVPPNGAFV
How it was run: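 Cloned mouse urotensin (mUR2) receptor membranes from Perkin Elmer Biosignal were immobilized in FlashPlate microplates using a proprietary coating. Each well got 19.5 μl buffer, then 0.5 μl of DMSO, reference ligand, or compound. Adding 5 μl of [125I]-Urotensin II, diluted to 5× final concentration in binding buffer, started binding. Plates were sealed with TopSeal-A and incubated 1 hour at room temperature in the dark. Wells were counted for 30 seconds each on a TopCount after a 60-second delay, and percentage inhibition was calculated.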

T1 sequence (P41143 whole entry): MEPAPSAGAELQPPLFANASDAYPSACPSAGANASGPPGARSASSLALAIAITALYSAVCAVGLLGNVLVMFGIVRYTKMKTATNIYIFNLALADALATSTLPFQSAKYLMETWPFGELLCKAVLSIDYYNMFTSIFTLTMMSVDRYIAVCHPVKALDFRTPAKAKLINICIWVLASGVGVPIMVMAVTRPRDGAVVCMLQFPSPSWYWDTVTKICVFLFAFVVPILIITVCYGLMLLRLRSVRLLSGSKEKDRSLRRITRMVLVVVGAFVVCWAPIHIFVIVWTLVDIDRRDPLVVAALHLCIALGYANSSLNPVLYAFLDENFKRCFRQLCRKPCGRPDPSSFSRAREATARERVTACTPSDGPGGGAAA

| Structure (SMILES) | A1: inhibition of radioligand binding (Human δ-opioid (DOP)) | A2: inhibition of radioligand binding (Human κ-Opioid (KOP)) | A3: inhibition of radioligand binding (Human Melanocortin (MC3)) | A4: inhibition of radioligand binding (Human Melanocortin (MC4)) | A5: inhibition of radioligand binding (Human melanocortin (MC5)) | A6: inhibition of radioligand binding [1] | A7: inhibition of radioligand binding (Human μ-opioid (MOP)) | A8: inhibition of radioligand binding (Human neurokinin (NK1)) | A9: inhibition of radioligand binding [2] | A10: inhibition of radioligand binding (Human opioid (ORL1)) | A11: inhibition of radioligand binding (Mouse urotensin (mUR2)) |
| --- | --- | --- | --- | --- | --- | --- | --- | --- | --- | --- | --- |
| COCC1OC(OCc2ccc(Cl)cc2)C(NC(=O)CCN)C(OCc2ccc(Cl)cc2)C1O (stereo not drawn) [compound 201] | − (“−” indicates less than 50% inhibition at 10 μM) | − (“−” indicates less than 50% inhibition at 10 μM) | − (“−” indicates less than 50% inhibition at 10 μM) | − (“−” indicates less than 50% inhibition at 10 μM) | + (“+” indicates greater than 50% inhibition at 10 μM) | − (“−” indicates less than 50% inhibition at 10 μM) | − (“−” indicates less than 50% inhibition at 10 μM) | + (“+” indicates greater than 50% inhibition at 10 μM) | − (“−” indicates less than 50% inhibition at 10 μM) | − (“−” indicates less than 50% inhibition at 10 μM) | − (“−” indicates less than 50% inhibition at 10 μM) |
| COCC1OC(OCc2ccc(Cl)cc2)C(NC(=O)CCNC(=N)N)C(OCc2ccc(Cl)cc2)C1O (stereo not drawn) [compound 202] | − (“−” indicates less than 50% inhibition at 10 μM) | − (“−” indicates less than 50% inhibition at 10 μM) | + (“+” indicates greater than 50% inhibition at 10 μM) | + (“+” indicates greater than 50% inhibition at 10 μM) | + (“+” indicates greater than 50% inhibition at 10 μM) | + (“+” indicates greater than 50% inhibition at 10 μM) | − (“−” indicates less than 50% inhibition at 10 μM) | + (“+” indicates greater than 50% inhibition at 10 μM) | − (“−” indicates less than 50% inhibition at 10 μM) | − (“−” indicates less than 50% inhibition at 10 μM) | − (“−” indicates less than 50% inhibition at 10 μM) |
| COCC1OC(OCc2ccc(Cl)cc2)C(NC(=O)CCCN)C(OCc2ccc(Cl)cc2)C1O (stereo not drawn) [compound 203] | − (“−” indicates less than 50% inhibition at 10 μM) | − (“−” indicates less than 50% inhibition at 10 μM) | − (“−” indicates less than 50% inhibition at 10 μM) | − (“−” indicates less than 50% inhibition at 10 μM) | + (“+” indicates greater than 50% inhibition at 10 μM) | − (“−” indicates less than 50% inhibition at 10 μM) | − (“−” indicates less than 50% inhibition at 10 μM) | + (“+” indicates greater than 50% inhibition at 10 μM) | − (“−” indicates less than 50% inhibition at 10 μM) | − (“−” indicates less than 50% inhibition at 10 μM) | − (“−” indicates less than 50% inhibition at 10 μM) |
| COCC1OC(OCc2ccc(Cl)cc2)C(NC(=O)CCCNC(=N)N)C(OCc2ccc(Cl)cc2)C1O (stereo not drawn) [compound 204] | − (“−” indicates less than 50% inhibition at 10 μM) | − (“−” indicates less than 50% inhibition at 10 μM) | + (“+” indicates greater than 50% inhibition at 10 μM) | + (“+” indicates greater than 50% inhibition at 10 μM) | + (“+” indicates greater than 50% inhibition at 10 μM) | + (“+” indicates greater than 50% inhibition at 10 μM) | − (“−” indicates less than 50% inhibition at 10 μM) | + (“+” indicates greater than 50% inhibition at 10 μM) | − (“−” indicates less than 50% inhibition at 10 μM) | − (“−” indicates less than 50% inhibition at 10 μM) | − (“−” indicates less than 50% inhibition at 10 μM) |
| COCC1OC(OCc2ccc(Cl)cc2)C(NC(=O)CN)C(OCc2ccc(-c3ccccc3)cc2)C1O (stereo not drawn) [compound 205] | − (“−” indicates less than 50% inhibition at 10 μM) | − (“−” indicates less than 50% inhibition at 10 μM) | − (“−” indicates less than 50% inhibition at 10 μM) | + (“+” indicates greater than 50% inhibition at 10 μM) | + (“+” indicates greater than 50% inhibition at 10 μM) | − (“−” indicates less than 50% inhibition at 10 μM) | − (“−” indicates less than 50% inhibition at 10 μM) | + (“+” indicates greater than 50% inhibition at 10 μM) | − (“−” indicates less than 50% inhibition at 10 μM) | − (“−” indicates less than 50% inhibition at 10 μM) | − (“−” indicates less than 50% inhibition at 10 μM) |
| COCC1OC(OCc2ccc(Cl)cc2)C(NC(=O)CCNC(=N)N)C(OCc2ccc(-c3ccccc3)cc2)C1O (stereo not drawn) [compound 206] | − (“−” indicates less than 50% inhibition at 10 μM) | − (“−” indicates less than 50% inhibition at 10 μM) | − (“−” indicates less than 50% inhibition at 10 μM) | + (“+” indicates greater than 50% inhibition at 10 μM) | + (“+” indicates greater than 50% inhibition at 10 μM) | + (“+” indicates greater than 50% inhibition at 10 μM) | − (“−” indicates less than 50% inhibition at 10 μM) | + (“+” indicates greater than 50% inhibition at 10 μM) | − (“−” indicates less than 50% inhibition at 10 μM) | − (“−” indicates less than 50% inhibition at 10 μM) | − (“−” indicates less than 50% inhibition at 10 μM) |
